Data published in ChEMBL document CHEMBL5113368, “Meroterpenoids produced by fungi: Occurrence, structural diversity, biological activities, and their molecular targets” (Eur J Med Chem, 2021).

Legend:
RAW264.7 = test: Anti-inflammatory activity in mouse RAW264.7 cells assessed as inhibition of NO production; type: functional, cell-based
[1] = biological target: T1, Prostaglandin G/H synthase 2 (Homo sapiens, UniProt P35354); test: Inhibition of human recombinant COX-2 pretreated with compound for 10 mins followed by substrate addition for 10 mins by fluorescent inhibitor screening assay
T1 sequence (P35354 whole entry): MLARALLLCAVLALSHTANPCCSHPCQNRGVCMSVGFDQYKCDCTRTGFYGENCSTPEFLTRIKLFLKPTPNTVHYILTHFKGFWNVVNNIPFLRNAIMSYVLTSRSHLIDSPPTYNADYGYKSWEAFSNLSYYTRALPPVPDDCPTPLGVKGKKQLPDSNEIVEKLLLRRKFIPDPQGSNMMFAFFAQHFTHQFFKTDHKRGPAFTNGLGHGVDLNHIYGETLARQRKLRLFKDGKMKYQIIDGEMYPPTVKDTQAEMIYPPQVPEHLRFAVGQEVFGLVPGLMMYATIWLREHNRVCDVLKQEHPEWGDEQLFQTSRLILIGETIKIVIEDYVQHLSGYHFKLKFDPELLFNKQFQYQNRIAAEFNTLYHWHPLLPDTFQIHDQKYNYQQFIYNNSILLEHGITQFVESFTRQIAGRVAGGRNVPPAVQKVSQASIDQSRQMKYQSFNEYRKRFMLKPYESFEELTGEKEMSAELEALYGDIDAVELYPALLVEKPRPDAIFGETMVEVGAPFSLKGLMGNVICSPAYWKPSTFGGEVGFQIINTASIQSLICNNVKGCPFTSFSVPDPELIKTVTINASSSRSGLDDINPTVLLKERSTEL

[2] = biological target: T2, Tyrosine-protein kinase JAK3 (Homo sapiens, UniProt P52333); test: Inhibition of JAK3 (unknown origin) by FRET-based Z'-Lyte assay
T2 sequence (P52333 whole entry): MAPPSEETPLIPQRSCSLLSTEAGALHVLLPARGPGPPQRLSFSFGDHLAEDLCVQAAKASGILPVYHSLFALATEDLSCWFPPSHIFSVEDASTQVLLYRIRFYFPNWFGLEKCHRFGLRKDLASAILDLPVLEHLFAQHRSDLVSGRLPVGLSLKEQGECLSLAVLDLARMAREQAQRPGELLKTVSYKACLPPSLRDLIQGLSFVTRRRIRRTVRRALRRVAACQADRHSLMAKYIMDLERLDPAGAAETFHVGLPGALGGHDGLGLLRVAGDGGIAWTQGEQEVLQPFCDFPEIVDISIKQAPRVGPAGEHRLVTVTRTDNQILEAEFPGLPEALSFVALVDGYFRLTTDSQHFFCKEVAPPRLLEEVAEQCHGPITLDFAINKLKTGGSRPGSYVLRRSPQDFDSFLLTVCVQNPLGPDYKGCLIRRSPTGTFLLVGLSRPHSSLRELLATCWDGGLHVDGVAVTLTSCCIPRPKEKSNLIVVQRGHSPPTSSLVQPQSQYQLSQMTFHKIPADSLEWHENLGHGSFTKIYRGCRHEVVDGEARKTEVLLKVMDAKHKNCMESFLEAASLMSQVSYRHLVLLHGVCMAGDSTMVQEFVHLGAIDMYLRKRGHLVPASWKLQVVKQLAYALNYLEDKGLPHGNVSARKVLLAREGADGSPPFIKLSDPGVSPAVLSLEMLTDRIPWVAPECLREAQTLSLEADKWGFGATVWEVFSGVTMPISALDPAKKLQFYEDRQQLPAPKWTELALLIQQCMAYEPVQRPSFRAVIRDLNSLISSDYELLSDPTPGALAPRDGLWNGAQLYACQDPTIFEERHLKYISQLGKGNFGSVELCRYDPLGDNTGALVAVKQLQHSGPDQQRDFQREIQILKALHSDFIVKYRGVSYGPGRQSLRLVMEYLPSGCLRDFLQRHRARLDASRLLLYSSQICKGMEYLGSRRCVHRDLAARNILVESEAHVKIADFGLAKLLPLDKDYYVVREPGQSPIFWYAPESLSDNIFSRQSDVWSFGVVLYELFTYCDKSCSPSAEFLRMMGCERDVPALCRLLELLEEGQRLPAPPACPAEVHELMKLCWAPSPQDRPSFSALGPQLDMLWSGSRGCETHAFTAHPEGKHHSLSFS

Acetylcholinesterase [3] = biological target: T3, Acetylcholinesterase (Homo sapiens, UniProt P22303); test: Inhibition of human erythrocyte AChE using acetylthiocholine iodide as substrate incubated for 20 mins by DTNB reagent based spectrophotometric method
T3 sequence (P22303 whole entry): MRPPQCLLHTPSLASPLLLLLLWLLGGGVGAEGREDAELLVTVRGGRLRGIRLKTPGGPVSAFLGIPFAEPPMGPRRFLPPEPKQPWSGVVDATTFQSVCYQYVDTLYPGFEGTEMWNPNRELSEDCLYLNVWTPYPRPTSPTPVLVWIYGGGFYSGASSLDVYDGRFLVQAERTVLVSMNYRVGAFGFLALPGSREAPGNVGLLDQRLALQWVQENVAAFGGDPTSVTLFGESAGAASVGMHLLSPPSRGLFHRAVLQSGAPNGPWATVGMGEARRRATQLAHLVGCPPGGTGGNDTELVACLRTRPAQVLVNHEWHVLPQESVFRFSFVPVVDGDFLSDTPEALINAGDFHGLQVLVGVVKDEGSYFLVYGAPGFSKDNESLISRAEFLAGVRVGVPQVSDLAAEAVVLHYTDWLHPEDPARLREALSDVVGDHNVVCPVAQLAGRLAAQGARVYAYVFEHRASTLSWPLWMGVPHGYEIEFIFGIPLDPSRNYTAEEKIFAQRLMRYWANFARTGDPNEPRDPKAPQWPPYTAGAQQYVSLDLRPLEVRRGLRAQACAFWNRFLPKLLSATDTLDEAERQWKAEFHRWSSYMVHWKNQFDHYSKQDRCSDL

[4] = Inhibition of Saccharomyces cerevisiae alpha-glucosidase using p-nitrophenyl-alpha-D -glucopyranoside as substrate pre-incubated for 10 mins followed by substrate addition measured after 15 mins by absorbance based analysis
Acetylcholinesterase [5] = biological target: T3, Acetylcholinesterase; test: Inhibition of AChE (unknown origin)
[6] = biological target: T1, Prostaglandin G/H synthase 2; test: Inhibition of COX-2 (unknown origin) by fluorescent inhibitor screening assay
[7] = biological target: T4, Pancreatic triacylglycerol lipase (Sus scrofa, UniProt P00591); test: Inhibition of porcine pancreatic lipase using p-Nitrophenyl butyrate substrate incubated for 15 mins by spectrophotometer analysis
T4 sequence (P00591 whole entry): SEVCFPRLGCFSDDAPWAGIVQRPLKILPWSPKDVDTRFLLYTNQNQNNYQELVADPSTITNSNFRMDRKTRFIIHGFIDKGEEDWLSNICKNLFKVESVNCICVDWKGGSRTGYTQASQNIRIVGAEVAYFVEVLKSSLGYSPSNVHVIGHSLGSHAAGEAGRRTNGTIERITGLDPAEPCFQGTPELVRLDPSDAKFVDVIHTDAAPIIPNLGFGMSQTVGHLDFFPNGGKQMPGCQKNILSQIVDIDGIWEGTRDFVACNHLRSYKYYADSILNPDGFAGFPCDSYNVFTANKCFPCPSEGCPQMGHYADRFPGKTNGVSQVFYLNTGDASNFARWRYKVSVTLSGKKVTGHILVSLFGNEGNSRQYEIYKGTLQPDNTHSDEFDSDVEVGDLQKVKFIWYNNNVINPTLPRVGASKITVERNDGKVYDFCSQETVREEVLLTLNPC

[8] = biological target: Epithelial discoidin domain-containing receptor 1 (Homo sapiens, UniProt Q08345); test: Inhibition of DDR1 (unknown origin) by lanthascreen eu kinase activity assay
Epithelial discoidin domain-containing receptor 1, sequence (Q08345 whole entry, the tested form may be a part): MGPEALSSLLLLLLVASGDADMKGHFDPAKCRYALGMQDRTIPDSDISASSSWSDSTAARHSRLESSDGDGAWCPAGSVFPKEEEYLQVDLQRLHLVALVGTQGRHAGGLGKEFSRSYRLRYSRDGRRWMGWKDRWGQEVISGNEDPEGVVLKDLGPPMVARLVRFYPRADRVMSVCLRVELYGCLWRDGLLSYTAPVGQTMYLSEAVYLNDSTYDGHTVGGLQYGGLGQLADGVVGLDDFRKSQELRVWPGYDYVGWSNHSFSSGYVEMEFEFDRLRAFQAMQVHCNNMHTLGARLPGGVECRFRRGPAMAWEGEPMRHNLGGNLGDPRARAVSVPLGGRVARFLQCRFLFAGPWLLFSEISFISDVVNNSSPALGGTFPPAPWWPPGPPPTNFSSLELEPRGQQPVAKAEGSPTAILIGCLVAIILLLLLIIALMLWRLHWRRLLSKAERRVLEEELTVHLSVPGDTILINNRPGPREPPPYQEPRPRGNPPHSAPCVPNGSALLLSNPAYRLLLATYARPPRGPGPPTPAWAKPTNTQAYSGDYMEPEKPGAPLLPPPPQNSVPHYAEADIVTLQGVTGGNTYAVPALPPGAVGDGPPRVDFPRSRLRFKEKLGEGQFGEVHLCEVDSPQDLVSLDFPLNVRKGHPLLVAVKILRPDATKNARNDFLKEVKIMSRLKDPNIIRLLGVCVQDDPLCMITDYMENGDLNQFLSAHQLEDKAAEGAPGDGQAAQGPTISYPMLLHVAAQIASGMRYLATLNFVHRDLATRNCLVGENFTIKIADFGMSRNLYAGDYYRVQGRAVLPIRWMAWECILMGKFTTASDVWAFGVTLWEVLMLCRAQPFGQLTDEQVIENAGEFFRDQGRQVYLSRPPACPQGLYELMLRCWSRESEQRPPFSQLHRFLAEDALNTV

KB = test: Cytotoxicity against human KB cells assessed as cell growth inhibition; type: functional, cell-based
NCI-H187 = test: Cytotoxicity against human NCI-H187 cells assessed as cell growth inhibition; type: functional, cell-based
K562 = test: Cytotoxicity against human K562 cells assessed as cell growth inhibition by CCK-8 method; type: functional, cell-based
Staphylococcus aureus = test: Antibacterial activity against Staphylococcus aureus assessed as bacterial growth inhibition; type: functional, organism-based

Work on CC1(C)CCC[C@@]23C[C@@](CC(=O)c4cc(O)ccc4O)(CC[C@H]12)C(=O)O3 yielded an IC50 (RAW264.7) of 6.1 µM.

Compound CC(C)=CCC/C(C)=C/CCC1=C[C@]2(OC1=O)c1cc(O)ccc1OC(=O)[C@@]2(CCC=C(C)C)CC(=O)c1cc(O)ccc1O (racemic) has an IC50 [1] of 1.29 µM.

In the case of CO[C@H]1OC(=O)[C@@]2(CC(=O)c3cc(O)ccc3O)C[C@@H]3[C@@H](CCC4=C[C@H](c5cc(O)ccc5O)OC4=O)C(C=O)=CO[C@@H]3[C@@]12C (racemic), the IC50 [2] is reported as < 10 µM.

CCOC1(c2cc(O)ccc2O)C=C(CC/C=C(\C)CCC=C(C)C)C(=O)O1 (centres undefined) showed an IC50 (Acetylcholinesterase [3]) of 7.37 µM.

Work on COC(=O)[C@H](CCCCN1Cc2c(cc(O)c(C/C=C(\C)CC/C=C(\C)C(=O)O)c2O)C1=O)N1Cc2c(cc(O)c(C/C=C(\C)CC/C=C(\C)C(=O)O)c2O)C1=O yielded an IC50 [4] of 36.2 µM.

CC(=O)O[C@@H]1C[C@@]2(C)Oc3cc(C)oc(=O)c3C[C@@H]2[C@@]2(C)C=CC(=O)C(C)(C)[C@H]12 showed an IC50 (Acetylcholinesterase [5]) of 13.6 µM.

With CC1(C)CCC[C@]23C[C@](CC(=O)c4cc(O)ccc4O)(CC[C@@H]12)C(=O)O3 the IC50 (RAW264.7) was 5.9 µM.

For C/C(=C/CC/C(C)=C/CC[C@]1(C(=O)O)CC(=O)c2cc(O)ccc2O1)C(=O)O, the IC50 [6] was 1.05 µM.

Compound CC(C)=CCC/C(C)=C/CCC1=C[C@]2(OC1=O)c1cc(O)ccc1OC(=O)[C@@]2(CC/C=C(\C)CCC=C(C)C)CC(=O)c1cc(O)ccc1O (racemic) has an IC50 [7] of 27.3 µM.

In the case of C/C(=C\CC/C(C)=C/CCCC1(O)Oc2ccc(O)cc2C1=O)CO (centres undefined), the IC50 [6] is reported as 1.38 µM.

For CO[C@H]1OC(=O)[C@@]2(CC(=O)c3cc(O)ccc3O)C[C@@H]3[C@@H](C/C=C(\CC(=O)c4cc(O)ccc4O)C(=O)O)C(C=O)=CO[C@@H]3[C@@]12C (racemic), the IC50 [2] was < 10 µM and the IC50 [8] was 8.2 µM.

Work on CC(=O)O[C@H]1C[C@@H](O)[C@@]2(C)[C@@H](CC[C@]3(C)[C@@H]2[C@@H](O)C[C@]2(C)Oc4oc(C)cc(=O)c4C[C@@H]32)C1(C)C yielded an IC50 (KB) of 32.7 µM and an IC50 (NCI-H187) of 32.7 µM.

CC(C)=CCC/C(C)=C/CCC1=C[C@]2(OC1=O)c1cc(O)ccc1OC(=O)[C@@]2(CC/C=C(\C)CCC=C(C)C)CC(=O)c1cc(O)ccc1O gave an IC50 [7] of 2.5 µM.

In the case of C=C(C)C1CCC2(C(=O)OCC)CC13Oc1cc(C/C=C(/CC/C=C(\C)CCC=C(C)C)C(=O)O)c(O)cc1-c1c(O)ccc(c13)O2 (racemic), the IC50 (K562) is reported as 6.68 µM and the IC50 (Staphylococcus aureus) is reported as 5.43 µM.

Work on CC(C)=CCCC1=C[C@]2(OC1=O)c1cc(O)ccc1OC(=O)[C@@]2(CC/C=C(\C)CCC=C(C)C)CC(=O)c1cc(O)ccc1O (racemic) yielded an IC50 [1] of 1.29 µM.

Compound CO[C@@H]1OC(=O)[C@]2(CC(=O)c3cc(O)ccc3O)C[C@H]3[C@H](C/C=C(\CC(=O)c4cc(O)ccc4O)C(=O)O)C(C=O)=CO[C@H]3[C@]12C has an IC50 [8] of 6.9 µM.
